Reference: PubChem BioAssay AID330 (DTP/NCI, 2004)
Values joined by “and” are separate entries in the source; they are usually repeats but may differ in a detail not shown here. Identical values can stand only once. Inconclusive results and toxic doses are left out. How the source made its calls: active means survival T/C of 150% or more; inactive means T/C below 125% in these data.

Tested on: P388 leukemia ip, CD2F1 mice, survival T/C
Experiment: NCI In Vivo Anticancer Drug Screen. Data for tumor model P388 Leukemia (intraperitoneal) in CD2F1 (CDF1) mice
Details: endpoint: median survival time, higher = longer survival
Procedure, shortened: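 Mice carrying the transplanted tumor received test compound or vehicle. Survival was recorded in each group, and the value is the treated-group measurement divided by that of the vehicle-treated control group.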

[1] = dose: 100.0 mg/kg/injection, schedule: Q04DX002 (ip), vehicle: saline
[2] = dose: 200.0 mg/kg/injection, schedule: Q04DX002 (ip), vehicle: saline
[3] = dose: 400.0 mg/kg/injection, schedule: Q04DX002 (ip), vehicle: saline
[4] = dose: 100.0 mg/kg/injection, schedule: Q01DX005 (ip), vehicle: Klucel (hydroxypropylcellulose) (HPC)
[5] = dose: 200.0 mg/kg/injection, schedule: Q01DX005 (ip), vehicle: Klucel (hydroxypropylcellulose) (HPC)
[6] = dose: 60.0 mg/kg/injection, schedule: Q01DX005 (ip), vehicle: saline
[7] = dose: 12.5 mg/kg/injection, schedule: Q01DX009 (ip), vehicle: other
[8] = dose: 25.0 mg/kg/injection, schedule: Q01DX009 (ip), vehicle: other
[9] = dose: 50.0 mg/kg/injection, schedule: Q01DX009 (ip), vehicle: other
[10] = dose: 100.0 mg/kg/injection, schedule: Q01DX009 (ip), vehicle: other
[11] = dose: 200.0 mg/kg/injection, schedule: Q01DX009 (ip), vehicle: other
[12] = dose: 50.0 mg/kg/injection, schedule: Q01DX005 (ip), vehicle: Klucel (hydroxypropylcellulose) (HPC)
[13] = dose: 60.0 mg/kg/injection, schedule: Q01DX005 (ip), vehicle: saline with Tween-80
[14] = dose: 120.0 mg/kg/injection, schedule: Q01DX005 (ip), vehicle: saline with Tween-80
[15] = dose: 240.0 mg/kg/injection, schedule: Q01DX005 (ip), vehicle: saline with Tween-80
[16] = dose: 50.0 mg/kg/injection, schedule: Q01DX009 (ip), vehicle: saline with Tween-80
[17] = dose: 50.0 mg/kg/injection, schedule: Q01DX009 (ip), vehicle: Klucel (hydroxypropylcellulose) (HPC)
[18] = dose: 100.0 mg/kg/injection, schedule: Q01DX009 (ip), vehicle: Klucel (hydroxypropylcellulose) (HPC)

Measured: T/C

O=c1[nH]cnc2c1ccn2C1OC(CO)C(O)C1O (stereo not drawn)
inactive: dose: 3.0 mg/kg/injection, schedule: Q01DX009 (ip), vehicle: saline with Tween-80 100 % of control | dose: 6.0 mg/kg/injection, schedule: Q01DX009 (ip), vehicle: saline with Tween-80 100 % of control | dose: 12.0 mg/kg/injection, schedule: Q01DX009 (ip), vehicle: saline with Tween-80 104 % of control

CCc1cc(C2C(=O)c3ccccc3C2=O)cc(CC)c1O
inactive: [1] 107 % of control | [2] 105 % of control | [3] 110 % of control

CCOC(=O)/C(C#N)=C\c1ccc(OCc2ccccc2)c(OCc2ccccc2)c1
inactive: dose: 12.5 mg/kg/injection, schedule: Q01DX005 (ip), vehicle: distilled water + alcohol 93 % of control | dose: 25.0 mg/kg/injection, schedule: Q01DX005 (ip), vehicle: distilled water + alcohol 87 % of control | dose: 50.0 mg/kg/injection, schedule: Q01DX005 (ip), vehicle: distilled water + alcohol 88 % of control | [4] 89 % of control | [5] 91 % of control

CN1CCC(c2ccccc2)=C(Br)C1
inactive: [6] 102 % of control | dose: 120.0 mg/kg/injection, schedule: Q01DX005 (ip), vehicle: saline 98 % of control

CCC1(CC)C(=O)N(C)P(=O)(Oc2ccccc2)N(C)C1=O
inactive: [1] 100 % of control | [2] 103 % of control | [3] 101 % of control

CCOC(=O)NNS(=O)(=O)CCC(NC(=O)OCc1ccccc1)C(=O)OCc1ccccc1 (stereo not drawn)
inactive: [7] 96 % of control | [8] 104 % of control | [9] 104 % of control | [10] 104 % of control | [11] 104 % of control

Cc1ccccc1[B-]12OCC[N+]1(CNC(=O)C1=C(O)C3(O)C(=O)C4=C(O)c5c(O)cccc5C(C)(O)C4CC3C(N(C)C)C1=O)CCO2 (stereo not drawn)
inactive: [12] 110 % of control | [4] 115 % of control | [5] 108 % of control

COc1ccc(C(OCC2CC3C=CC2C3)OCC2CC3C=CC2C3)cc1 (stereo not drawn)
inactive: [7] 110 % of control | [8] 111 % of control | [9] 105 % of control | [10] 114 % of control | [11] 114 % of control

O=C(CN1CCCCC1)Nc1nc(-c2ccc(Cl)cc2)cs1
inactive: dose: 6.25 mg/kg/injection, schedule: Q01DX005 (ip), vehicle: saline with Tween-80 100 % of control | dose: 12.5 mg/kg/injection, schedule: Q01DX005 (ip), vehicle: saline with Tween-80 94 % of control | dose: 25.0 mg/kg/injection, schedule: Q01DX005 (ip), vehicle: saline with Tween-80 89 % of control

CC/C(=N\NS(=O)(=O)c1ccc(C)cc1)c1cccc(C#N)c1
inactive: dose: 50.0 mg/kg/injection, schedule: Q01DX009 (ip), vehicle: saline 106 % of control | dose: 100.0 mg/kg/injection, schedule: Q01DX009 (ip), vehicle: saline 96 % of control | dose: 200.0 mg/kg/injection, schedule: Q01DX009 (ip), vehicle: saline 99 % of control

COc1cc(C(c2cc3c(cc2OC(C)=O)OCO3)C(C)C(C)=O)cc(OC)c1OC (stereo not drawn)
inactive: [13] 102 % of control | [14] 108 % of control | [15] 111 % of control

O=C(Nc1ccc(Cl)cc1)Nc1nnc(-c2cc([N+](=O)[O-])cc([N+](=O)[O-])c2)o1
inactive: [13] 98 % of control | [14] 92 % of control | [15] 86 % of control

CC(=O)OC1=C2OC(=O)C3(C2C=CC=C1)C1C=CC=CC13 (stereo not drawn)
inactive: [16] 97 % of control | dose: 100.0 mg/kg/injection, schedule: Q01DX009 (ip), vehicle: saline with Tween-80 97 % of control | dose: 200.0 mg/kg/injection, schedule: Q01DX009 (ip), vehicle: saline with Tween-80 111 % of control

S=c1nc(-c2ccccc2)oc(=NC2CCCCC2)n1C1CCCCC1
inactive: dose: 50.0 mg/kg/injection, schedule: Q01DX005 (ip), vehicle: saline with Tween-80 98 % of control | dose: 100.0 mg/kg/injection, schedule: Q01DX005 (ip), vehicle: saline with Tween-80 101 % of control | dose: 200.0 mg/kg/injection, schedule: Q01DX005 (ip), vehicle: saline with Tween-80 109 % of control

COC(=O)C(CS)NC(=O)CCNC(=O)OCc1ccccc1 (stereo not drawn)
inactive: dose: 25.0 mg/kg/injection, schedule: Q04DX003 (ip), vehicle: sodium bicarbonate 91 % of control | dose: 50.0 mg/kg/injection, schedule: Q04DX003 (ip), vehicle: sodium bicarbonate 87 % of control | dose: 100.0 mg/kg/injection, schedule: Q04DX003 (ip), vehicle: sodium bicarbonate 96 % of control | dose: 200.0 mg/kg/injection, schedule: Q04DX003 (ip), vehicle: sodium bicarbonate 87 % of control | dose: 400.0 mg/kg/injection, schedule: Q04DX003 (ip), vehicle: sodium bicarbonate 91 % of control

COc1ccc2cc(-c3ccccc3)[s+]cc2c1
inactive: dose: 3.12 mg/kg/injection, schedule: Q01DX009 (ip), vehicle: DMSO 91 % of control | dose: 6.25 mg/kg/injection, schedule: Q01DX009 (ip), vehicle: DMSO 86 % of control | dose: 12.5 mg/kg/injection, schedule: Q01DX009 (ip), vehicle: DMSO 89 % of control | dose: 50.0 mg/kg/injection, schedule: Q01DX009 (ip), vehicle: DMSO 99 % of control

[NH-]CC([NH-])=O.[NH-]CC([NH-])=O.[Ni]
inactive: dose: 1.0 mg/kg/injection, schedule: Q01DX009 (ip), vehicle: saline 100 % of control | dose: 2.0 mg/kg/injection, schedule: Q01DX009 (ip), vehicle: saline 95 % of control | dose: 4.0 mg/kg/injection, schedule: Q01DX009 (ip), vehicle: saline 100 % of control | dose: 8.0 mg/kg/injection, schedule: Q01DX009 (ip), vehicle: saline 100 % of control

CN(C)c1ccc(N2C(N)=NC(N)=NC2(C)C)cc1
inactive: dose: 15.0 mg/kg/injection, schedule: Q01DX005 (ip), vehicle: saline 94 % of control | dose: 30.0 mg/kg/injection, schedule: Q01DX005 (ip), vehicle: saline 95 % of control | [6] 98 % of control and 95 % of control

COC(=O)C1C2CC3c4[nH]c5c([N+](=O)[O-])c(OC)ccc5c4CCN3CC2CC(OC(=O)c2cc(OC)c(OC)c(OC)c2)C1OC (stereo not drawn)
inactive: dose: 9.38 mg/kg/injection, schedule: Q01DX005 (ip), vehicle: Klucel (hydroxypropylcellulose) (HPC) 98 % of control | dose: 18.75 mg/kg/injection, schedule: Q01DX005 (ip), vehicle: Klucel (hydroxypropylcellulose) (HPC) 95 % of control | dose: 37.5 mg/kg/injection, schedule: Q01DX005 (ip), vehicle: Klucel (hydroxypropylcellulose) (HPC) 96 % of control | dose: 75.0 mg/kg/injection, schedule: Q01DX005 (ip), vehicle: Klucel (hydroxypropylcellulose) (HPC) 86 % of control

CCN1C2=NCCN2C(=O)c2ccccc21
inactive: [17] 97 % of control | [18] 97 % of control

CN(C)c1ccc(N=Nc2ccc3ccc4c(N=Nc5ccc(N(C)C)cc5)ccc5ccc2c3c54)cc1
inactive: [17] 106 % of control | [18] 103 % of control | dose: 200.0 mg/kg/injection, schedule: Q01DX009 (ip), vehicle: Klucel (hydroxypropylcellulose) (HPC) 103 % of control

COC(=O)C(C)C(O)C(C)N (stereo not drawn)
inactive: dose: 12.5 mg/kg/injection, schedule: Q01DX009 (ip), vehicle: water 107 % of control | dose: 25.0 mg/kg/injection, schedule: Q01DX009 (ip), vehicle: water 118 % of control | dose: 50.0 mg/kg/injection, schedule: Q01DX009 (ip), vehicle: water 106 % of control | dose: 100.0 mg/kg/injection, schedule: Q01DX009 (ip), vehicle: water 98 % of control | dose: 200.0 mg/kg/injection, schedule: Q01DX009 (ip), vehicle: water 100 % of control

Nc1nc(Nc2ccc(C3=NCCN3)cc2)nc(Nc2ccc(C3=NCCN3)cc2)n1
inactive: dose: 6.25 mg/kg/injection, schedule: Q01DX009 (ip), vehicle: saline 122 % of control | dose: 6.25 mg/kg/injection, schedule: Q01DX009 (ip), vehicle: suspension in saline 108 % of control

Cc1cccc([B-]23OCC[N+]2(CNC(=O)c2ccccc2O)CCO3)c1 (stereo not drawn)
inactive: [12] 105 % of control | [4] 104 % of control | [5] 104 % of control

BrCC1(CBr)OCCO1
inactive: [16] 106 % of control
